Experimental data as given in patent publication US20190187129A1, “CANCER MODELING PLATFORMS AND METHODS OF USING THE SAME” (Wake Forest University Health Sciences, priority 2016, published 2019).

Key:
[1] = test system: HT29 cells; test: 3D hyaluronan-based hydrogel construct drug screen, MTS assay; type: cell-based; conditions: Homo sapiens
Procedure: (§1) Polydimethylsiloxane, or PDMS, was used to coat the bottom of the wells. Cells were embedded within the hyaluronan-based hydrogel and were given 5 days to acclimate to their three-dimensional environment and on day 5 were administered different anticancer drug solutions (FIG. 7, panel A). […] At 100 μM concentrations of Regorafenib and Sorafenib, cellular viability remained below 25% that of the control for all four of the colorectal cancer cell lines utilized. The only exception to this was when 100 μM Regorafenib was administered to CACO2 cells and the percent relative cell viability rose to approximately 48%. […] At a 100 μM concentration, Dabrafenib had greater efficacy in targeting the HCT116 and SW480 cell lines, which had relative cellular viability values of 38% and 43%, as opposed to the HT29 and CACO2 cell lines, which had higher cell viability values of 93% and 75%. 100 μM concentrations of Trametinib produced relative cellular viability results that fell within a narrow range for the four colorectal cell lines with values of 54% for SW480 cells and 74% for HT29 cells.
(§2) Well Coating with PDMS and Cell Isolation: Polydimethylsiloxane, or PDMS, (DOW Corning, North Carolina, USA) was used at a 1:10 curing agent ratio to coat the bottom of the 96-well plates and the plates were then placed in a 80° C. oven for at least one hour. Cells were passaged in the same methods previously mentioned (A) with the desire to place 10 μL 3D hyaluronan-based hydrogel constructs containing 100,000 cells each ([…]) into the wells of a 96-wells plate for all four colorectal cancer cell types. Depending on the cell count, a desired number of cells were isolated in new 15 mL centrifuge tubes as cell-media solution and underwent centrifugation.
(§3) Hydrogel Components of the Single-Cell Type Constructs: The hyaluronic acid-based hydrogel (ESI BIO, California, USA) was produced using a mixture of three components: Heprasil, Gelin-S, and Extralink PEGDA 2-ARM Acrylate crosslinker. These components were mixed in a 2:2:1 ratio by volume. 0.1% Irgacure photoinitiator (Sigma-Aldrich, Missouri, USA) was added to each of the three components prior to their mixture and the three components were placed in a 37° C. incubator for a ˜30 minutes to solubilize.
(§4) Forming Organoid Constructs: Once solubilized, the media was aspirated from the 15 mL centrifuge tube (post-centrifugation) and the cells were isolated as a pellet. The hydrogel components were added directly into the centrifuge tube containing the cells and the cells were carefully resuspended in the mixture. 10 μL of the gel-cell solution was placed in the center of the wells on the PDMS coating. This was continued for all wells containing cells and was repeated for each cell type. After this point, the gel can be exposed to UV light from a BlueWave 200 spot light (Dymax, Connecticut, USA) to solidify the hydrogel, or one can wait ˜30 minutes for the gel to form on its own. DMEM-10 media was then placed in the wells and the constructs were incubated for 5 days.
(§5) Anticancer Drug Screening and Cell Viability: The same five anticancer drugs were added on Day 5 and the cell viability assay occurred on Day 7.

[2] = test system: SW480 cells; test: as above; type: cell-based; conditions: Homo sapiens
Procedure: as §1, §2, §3, §4, §5

[3] = test system: SW480 cells; test: 2D drug screen, MTS assay; type: cell-based; conditions: Homo sapiens, read-out: relative cellular viability (MTS, relative to control)
Procedure: Cancer cells seeded directly into wells were given 4-5 hours to reattach to the bottom of the wells. After that time, the anticancer drug solutions were administered in place of the media (FIG. 6, panel A) and an MTS assay was carried out 2 days later to determine cell viability. […] At 100 μM concentrations of Regorafenib and Sorafenib, and 100 mM concentrations of 5-FU, cellular viability remained below 20% that of the control for all four of the colorectal cancer cell lines utilized. However, screening with Dabrafenib and Trametinib produced diverging results from the other three anticancer drugs at higher concentrations. […] When treated with 1 mM concentrations of 5-FU, relative cellular viability was approximately 39% for SW480 cells and remained between 10%-22% for the HCT116, HT29, and CACO2 cells. These values were considerably lower than the relative cellular viability values for the lowest concentrations of the other anticancer drugs.
Cell Seeding: The original 15 mL centrifuge tubes containing the 10 mL of DMEM-10, cells, and trypsin were placed into a centrifuge. The centrifugation setting was 1500 RPM and at maximal acceleration for 5 minutes. After that time, the media and trypsin mixture was aspirated from the tubes, leaving the cell pellets still intact. 5 mL of DMEM-10 was then pipetted into each of the tubes, resuspending the cells in the process. Calculated volumes of the 5 mL cell-media solution were determined to ensure that 25,000 cells of each of the four colorectal cancer cell lines were seeded directly into each of the wells of a polystyrene clear-bottom 96-well plate. 100 μL of DMEM-10 media was then pipetted directly into the wells. The 96-well plates were incubated at 37° C. and 5% CO2 for 5 hours to allow the cells to reattach themselves to the bottom of the wells until media was aspirated and anticancer drug solutions were added.
Addition of Anticancer Drugs for Screening: The anticolorectal cancer drugs used in this screening included 5-FU, Regorafenib, Sorafenib, Trametinib, and Dabrafenib (Sigma-Aldrich, Missouri, USA)). High concentration drug stock solutions were created with DMSO. Lower concentration drug solutions were created by mixing the anticancer drug stocks with DMEM-10 media. […] drug solutions were generated for 5-FU; 1 μM, 10 μM, and 100 μM drug solutions were generated for Regorafenib, Sorafenib, and Dabrafenib; and 1 nM, 10 nM, and 100 nM drug solutions were generated for Trametinib. Media was carefully aspirated from the wells and 200 μL of the various drug-media solutions were placed into the wells containing cells. Three duplicates were generated for each anticancer drug concentration with each of the different cell types to calculate averages and run statistics on the data generated. Well plates were then incubated at 37° C. and 5% CO2 for […].
Cell viability assay: Cell viability was determined 48 hours after exposure to the anticancer drug solutions. The viability of the cells was examined by the CellTiter 96® AQueous One Solution Cell Proliferation (MTS) assay (Promega, Wisconsin, USA). The anticancer drug-media solutions were aspirated from the wells and 200 μL of the MTS reagent was carefully pipetted into the wells. The incubation time for the cells with the MTS reagent was approximately 45 minutes. The cell viability assay was performed on another 96-well plate and the absorbance was quantified by the EnVision Multilabel Plate Reader (PerkinElmer, California, USA).

[4] = test system: CACO2 cells; test: 3D hyaluronan-based hydrogel construct drug screen, MTS assay; conditions: Homo sapiens, Caco-2, 3D, read-out: percent relative cell viability (MTS, relative to control)
Procedure: as §1, §2, §3
Forming Organoid Constructs: Once solubilized, the media was aspirated from the 15 mL centrifuge tube (post-centrifugation) and the cells were isolated as a pellet. The hydrogel components were added directly into the centrifuge tube containing the cells and the cells were carefully resuspended in the mixture. 10 μL of the gel-cell solution was placed in the center of the wells on the PDMS coating. This was continued for all wells containing cells and was repeated for each cell type. […]

Compound	viability at 10000 µM ([1]; HT-29, 10 mM, HT29, read-out: percent relative cell viability (MTS, relative to control))	viability at 10000 µM ([2]; 10 mM, SW480, read-out: percent relative cell viability (MTS, relative to control))	viability at 100000 µM ([2]; 100 mM, SW480, read-out: percent relative cell viability (MTS, relative to control))	viability at 1000 µM ([3]; 1 mM)	viability at 100000 µM ([3]; 100 mM)	viability at 10000 µM ([4]; 10 mM, CACO2)	viability at 100 µM ([1]; HT-29, 100 μM, HT29, drug day 5, assay day 7, read-out: percent relative cell viability (MTS, relative to control))	viability at 100 µM ([2]; 100 μM, SW480, drug day 5, assay day 7, read-out: percent relative cell viability (MTS, relative to control))	viability at 100 µM ([3]; 100 μM)	viability at 100 µM ([4]; 100 μM, CACO2, drug day 5, assay day 7)
O=c1[nH]cc(F)c(=O)[nH]1 [5-FU, 5-Fluorouracil]	50%	9%	48%	~39%	< 20%	22%				
CNC(=O)c1cc(Oc2ccc(NC(=O)Nc3ccc(Cl)c(C(F)(F)F)c3)c(F)c2)ccn1 [Regorafenib]							< 25%	< 25%	< 20%	~48%
